# Patent US8334253B2, “Cosmetic and dermatological formulations of MNTF peptides” (Dermacare Neuroscience Institute, priority 2008, dated 2012)
# Peptide text beside a SMILES is read from it. * marks the point of attachment. Palmitoyl = CCCCCCCCCCCCCCCC(=O)*
# Columns and labels:
# Format in all cases: cell-based
# [1] = test system: gamma interferon-induced NO production in epidermal keratinocytes; test: Inhibition of gamma interferon-induced nitric oxide production in keratinocytes (Griess reaction); settings: keratinocytes, 48 hours, gamma-interferon 300 U/ml
# Excerpt: The study method chosen is similar to that published in the reference Tsai et al. (Tsai et al, Inhibition of inflammatory nitric oxide production and epidermis damages by Saccharomycopsis Ferment Filtrate. J Dermatol Sci 2006 June 42 (3): 249-57. Laskin, Multifunctional Role of Nitric Oxide in Inflammation, Trends Endocrinol Metab 1994; 5:377-382. Lyons, Emerging Roiles of Nitric Oxide in Inflammation, Hospital Practice, Jul. 15, 1996: 69-86.)
# The objective of the study was to investigate the inhibition effect of Pal-hexapeptide (SEQ ID NO: 2, in palmitylated form) on gamma interferon-induced NO production in epidermal keratinocytes in culture.
# Anti-inflammatory effect was observed as a reduction of nitric oxide production in keratinocytes. Keratinocytes were incubated 48 hours with gamma-interferon (300 U/ml) alone (as control) or with gamma-interferon together with different concentrations (0.1 μM, 1 μM, 10 μM, 100 μM and 1000 μM) of Pal-hexapeptide. Gamma interferon plus aminoguanidine (10 mg/mL) was used as positive control. The amount of NO production was detected by Griess reaction. Nitric oxide readily oxides to nitrite in aqueous medium, and this reaction was measured as nitrite accumulation in the medium. […] The optical density of the wells were read using a Tibertek Mutiskan (MCC microplate reader at a wavelength of 540 nm, subtracting the absorbance at a reference wavelength of 620 nm.) A printout of the absorbance values was generated by the plate reader, and data were entered into an EXCEL spreadsheet for analysis. The average absorbance and standard deviations were expressed as percent of control absorbances.
# [2] = test system: cellular peroxide levels in human epidermal keratinocytes; test: Cellular peroxide levels in keratinocytes, DCFH-DA dye and flow cytometry, with and without exogenous H2O2
# Protocol: Hydrogen peroxide can induce damages to skin cells. The dermal protective efficacy of Pal-hexapeptide was assessed by measuring basal peroxide levels in the presence and absence of the compound.
# Basal peroxide production, generated by normal cellular metabolism, induce gradual development of low levels of peroxide-specific cellular fluorescence.
# Extracellular peroxides (e.g., H2O2 added exogenously) can permeate the cell membrane and cause a rapid and dramatic increase in the peroxide-specific fluorescence of the cell. Cellular peroxides levels can be measured by flow cytometry using the peroxide-specific dye, 2′,7′-dichlorofluorescein diacetate (DCFH-DA). DCFH-DA is initially non-fluorescent and is rapidly concentrated within living cells by an enzyme-dependent process. […] The results of the assay indicates if a test compound functions as an oxidant or an anti-oxidant in a cellular system. If the test article functions as an anti-oxidant, this assay can also be used to determine if the test compound can permeate the cell membrane to quench intracellular peroxide or if it can only affect extracellular peroxide levels (Bass et al., 1983, J. Immunol. 130:1910-1917; Bombick et al., 1992, Toxicol. Meth. 2:255-264).
# Human primary keratinocytes, generally on the third passage, were seeded in T75 flasks and cultured until 70-80% confluent. A cell suspension was created and these cells were loaded with the dye DCFH-DA. The pre-incubated cells were exposed to dilutions of the Pal-hexapeptide having the amino acid sequence SEQ ID NO: 2 in two triplicate sets per dilution. One triplicate set was incubated with H2O2 (exogenous source of peroxide), and both sets were stained with Propidium Iodide. Cell viability and peroxide production were determined by fluorescence readings on a FACScan flow cytometer. Peroxide value increases or decreases of 25% or more compared to vehicle control values are considered biologically significant.
# [3] = test system: human keloid fibroblasts; test: Human keloid fibroblast proliferation kinetic study; settings: for inhibition of proliferation of human keloid fibroblasts: cell counts on days 1-4, Trypan blue exclusion
# Protocol: Keloid can be characterized as a hyperproliferation/growth of fibrous scar tissue following trauma to the skin. […] Experimental protocols were based on a published study design for keloid fibroblast growth kinetics and is as described in Polo et al., 1999, Ann. Plastic Surg. 43 (2):185-190.
# Briefly, fibroblasts were cultured from skin tissue obtained from fresh surgical specimens. The skin specimen was rinsed in 10 ml of calcium- and magnesium-free Dulbecco's phosphate-buffered saline (Sigma Chemical Co, St. Louis, Mo.) supplemented with gentamycin ([…]) for 30 minutes at room temperature. A second antibiotic rinse using 1% 10,000 U per milliliter penicillin G, 25 micrograms per milliliter amphotericin B, 10,000 micrograms per milliliter streptomycin sulfate solution (Gibco BRL, Gran Island, N.Y.) was performed for 10 minutes. The epidermis was separated from the dermis from each piece. The specimen was cut into four pieces of equal dimensions. Each piece was placed dermis-side down into a 60-mm culture dish containing Dispase solution (Collaborative Biomedical Products, Bedford, Mass.). The explants were incubated with no additional culture media for 15 minutes at 37° C. A total of 10 ml Dulbecco's modified Eagle's medium (DMEM; Gibco BRL) was added slowly to the culture dish, which was then incubated at 37° C. at 5% carbon dioxide. The cells were subcultured until 80% confluence was obtained. Trypsin-ethylenediaminetetraacetic acid (Gibco BRL) was added to […] the cells from the surface of the culture plate, and the cells were washed with DMEM and transferred to a centrifuge tube. […] The cells were counted using a hemocytometer, and their cell number was adjusted to 1×10^6 cells, which were then plated on a 35-mm Petri dish with 2 ml DMED and 1% fetal bovine serum, and incubated at 37° C. in 5% carbon dioxide. […]
# Samples from each group were removed on days 1, 2, 3 and 4. The cells from each sample were trypsinized, washed, centrifuged, and resuspended in 1 ml DMEM; and were counted using the Trypan blue dye exclusion method and a hemocytometer.
smiles,measurement,setting,value
"CCCCCCCCCCCCCCCC(=O)N[C@@H](Cc1ccccc1)C(=O)N[C@@H](CO)C(=O)N[C@@H](CCCNC(=N)N)C(=O)N[C@@H](Cc1ccc(O)cc1)C(=O)N[C@@H](C)C(=O)N[C@@H](CCCNC(=N)N)C(=O)O [Pal 6 mer, Pal-FSRYAR] (Palmitoyl-FSRYAR-OH; C-terminus assumed)","nitric oxide production induced by Gamma-interferon, % of the control",[1]; 0.1 μM,92%
same,"nitric oxide production induced by Gamma-interferon, % of the control",[1]; 1 μM,72%
same,"nitric oxide production induced by Gamma-interferon, % of the control",[1]; 10 μM,57%
same,"nitric oxide production induced by Gamma-interferon, % of the control",[1]; 100 μM,24%
same,"nitric oxide production induced by Gamma-interferon, % of the control",[1]; 1000 μM,31%
same,"peroxide level, % of the control, endogenous peroxide assay without exogenous H2O2","[2]; 0.79 mM, endogenous peroxide",40.21%
same,"peroxide level, % of the control, assay with exogenous added peroxide","[2]; 0.79 mM, exogenous H2O2 added",9.88%
same,"Cell viability, expressed as % of non-viable, treated versus not treated cells","[2]; keratinocytes, Propidium Iodide staining",about the same
same,"inhibition of human keloid fibroblast cells, dose response study",[3]; 10^−5 M or 10 micrograms per milliliter,highly effective
same,inhibition of proliferation of human keloid fibroblasts,[3]; listed as MNTF,statistically significant
same,inhibition of proliferation of human keloid fibroblasts,[3]; listed as Pal-Hexapeptide,dose-dependent reduction/inhibition
